The values that follow come from ChEMBL document CHEMBL4130465, “Berchemiosides A-C, 2-Acetoxy-ω-phenylpentaene Fatty Acid Triglycosides from the Unripe Fruits of Berchemia berchemiifolia” (J Nat Prod, 2017).

The target of series [1] is Xanthine dehydrogenase/oxidase (Homo sapiens, UniProt P47989). Kind of series: Inhibition of xanthine oxidase (unknown origin) using xanthine as substrate pretreated for 10 mins followed by substrate addition measured every 2 mins for 6 mins. As to conditions: for inhibition (INH): human, 0.1 h.
Sequence of Xanthine dehydrogenase/oxidase (P47989 whole entry): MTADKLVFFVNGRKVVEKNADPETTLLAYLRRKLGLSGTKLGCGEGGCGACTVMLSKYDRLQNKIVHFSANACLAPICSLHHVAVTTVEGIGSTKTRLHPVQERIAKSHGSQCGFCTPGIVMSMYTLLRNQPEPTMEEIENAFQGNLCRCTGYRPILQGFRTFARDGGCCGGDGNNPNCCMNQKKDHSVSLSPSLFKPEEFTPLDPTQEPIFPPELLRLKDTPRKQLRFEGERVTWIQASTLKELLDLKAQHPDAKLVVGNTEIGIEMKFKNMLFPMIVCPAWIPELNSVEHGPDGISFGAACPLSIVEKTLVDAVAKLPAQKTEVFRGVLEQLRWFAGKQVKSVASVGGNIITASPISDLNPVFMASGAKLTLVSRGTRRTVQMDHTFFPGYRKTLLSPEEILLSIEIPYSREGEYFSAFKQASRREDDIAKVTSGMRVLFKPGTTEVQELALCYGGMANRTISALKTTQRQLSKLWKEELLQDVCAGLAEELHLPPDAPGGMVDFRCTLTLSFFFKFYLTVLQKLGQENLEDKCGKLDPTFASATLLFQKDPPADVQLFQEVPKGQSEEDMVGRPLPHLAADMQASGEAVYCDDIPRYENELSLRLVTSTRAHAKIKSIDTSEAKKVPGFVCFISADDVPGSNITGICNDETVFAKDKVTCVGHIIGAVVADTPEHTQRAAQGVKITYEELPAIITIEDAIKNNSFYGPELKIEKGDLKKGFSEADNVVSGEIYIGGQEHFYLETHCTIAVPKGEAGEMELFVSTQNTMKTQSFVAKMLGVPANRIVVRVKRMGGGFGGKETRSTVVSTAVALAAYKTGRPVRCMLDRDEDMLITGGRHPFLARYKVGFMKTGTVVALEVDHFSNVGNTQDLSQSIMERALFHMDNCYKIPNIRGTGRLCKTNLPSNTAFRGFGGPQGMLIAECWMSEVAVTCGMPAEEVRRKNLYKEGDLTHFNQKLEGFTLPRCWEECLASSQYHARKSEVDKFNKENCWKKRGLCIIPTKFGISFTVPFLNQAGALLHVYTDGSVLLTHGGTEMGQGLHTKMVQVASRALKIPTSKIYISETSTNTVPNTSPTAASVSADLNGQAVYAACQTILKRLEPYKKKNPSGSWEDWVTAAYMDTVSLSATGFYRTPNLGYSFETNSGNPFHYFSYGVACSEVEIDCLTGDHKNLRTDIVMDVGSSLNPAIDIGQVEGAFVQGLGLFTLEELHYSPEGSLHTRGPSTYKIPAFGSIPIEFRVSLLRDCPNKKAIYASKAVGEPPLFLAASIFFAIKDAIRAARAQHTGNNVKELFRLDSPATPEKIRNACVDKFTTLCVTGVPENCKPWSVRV
Series [2] concerns HCT-116. Kind of series: Cytotoxicity against human HCT116 cells after 48 hrs by MTT assay. As to conditions: HCT-116, 48 h. It is filed as functional, cell-based.
The test system of series [3] is HCT-116. Kind of series: Cytotoxicity against human HCT116 cells up to 100 uM after 48 hrs by MTT assay. It is filed as functional, cell-based.

Active and inactive are the calls of the source. The calls are words filed in the database; no cut-off is given here.

Take `O=C1C[C@H](c2ccc(O)c(O)c2)Oc2cc(O)cc(O[C@@H]3O[C@H](CO)[C@@H](O)[C@H](O)[C@H]3O[C@@H]3O[C@H](CO)[C@@H](O)[C@H](O)[C@H]3O)c21`: the “inhibition (INH)” value in series [1] is “Not Active”. On to `CC(=O)O[C@@]12CO[C@@H]1C[C@H](O)[C@@]1(C)C(=O)[C@H](O)C3=C(C)[C@@H](OC(=O)[C@H](O)[C@@H](NC(=O)OC(C)(C)C)c4ccccc4)C[C@@](O)([C@@H](OC(=O)c4ccccc4)[C@H]21)C3(C)C` [DOCETAXEL ANHYDROUS], for which half-maximal inhibition in the series on HCT-116 [2] (IC50) was put at 0.13 µM. For `COc1cc2oc(-c3ccc(O)cc3)cc(=O)c2c(O)c1[C@@H]1O[C@H](CO)[C@@H](O)[C@H](O)[C@H]1O` [SWERTISIN], in series [1], the “inhibition (INH)” value is on record as “Not Active”. Turning to `C[C@@H]1O[C@@H](OC[C@H]2O[C@@H](Oc3ccc(C=O)cc3)[C@H](O)[C@@H](O)[C@@H]2O)[C@H](O)[C@H](O[C@@H]2O[C@H](COC(=O)/C=C/c3ccccc3)[C@@H](O)[C@H](O)[C@H]2O)[C@H]1O`, the outcome in the series with HCT-116 [3] was inactive. Take `O=C1C[C@@H](c2ccc(O)c(O)c2)Oc2cc(O)cc(O[C@@H]3O[C@H](CO)[C@@H](O)[C@H](O)[C@H]3O[C@@H]3O[C@H](CO)[C@@H](O)[C@H](O)[C@H]3O)c21`: the “inhibition (INH)” value in series [1] is given as “Not Active”. For the compound `CC(=O)O[C@H](CCC/C=C/C=C/C=C\C=C/C=C/c1ccc(O[C@@H]2O[C@H](CO[C@@H]3O[C@@H](C)[C@H](O)[C@@H](O[C@@H]4O[C@H](CO)[C@@H](O)[C@H](O)[C@H]4O)[C@H]3O)[C@@H](O)[C@H](O)[C@H]2O)cc1)C(=O)O`, in the series on HCT-116 [3], the outcome was inactive. Take `O=C1C[C@H](c2ccc(O)cc2)Oc2cc(O)cc(O[C@@H]3O[C@H](CO)[C@@H](O)[C@H](O)[C@H]3O[C@@H]3O[C@H](CO)[C@@H](O)[C@H](O)[C@H]3O)c21`: in series [1], the concentration for half-maximal inhibition (IC50) worked out at 95.4 µM. For the compound `CC(=O)O[C@H](CCC/C=C/C=C/C=C/C=C/C=C/c1ccc(O[C@@H]2O[C@H](CO[C@@H]3O[C@@H](C)[C@H](O)[C@@H](O[C@@H]4O[C@H](COC(=O)/C=C/C=C/c5ccccc5)[C@@H](O)[C@H](O)[C@H]4O)[C@H]3O)[C@@H](O)[C@H](O)[C@H]2O)cc1)C(=O)O`, in the series on HCT-116 [3], the outcome was inactive. Consider `CC(=O)O[C@H](CCC/C=C/C=C/C=C/C=C/C=C/c1ccc(O[C@@H]2O[C@H](CO[C@@H]3O[C@@H](C)[C@H](O)[C@@H](O[C@@H]4O[C@H](COC(=O)/C=C/c5ccccc5)[C@@H](O)[C@H](O)[C@H]4O)[C@H]3O)[C@@H](O)[C@H](O)[C@H]2O)cc1)C(=O)O`, for which the outcome with HCT-116 [3] was inactive. Consider `O=c1c(O[C@@H]2O[C@H](CO)[C@@H](O)[C@H](O)[C@H]2O[C@@H]2O[C@H](CO)[C@@H](O)[C@H](O)[C@H]2O)c(-c2ccc(O)c(O)c2)oc2cc(O)cc(O)c12`, for which the “inhibition (INH)” value in series [1] is on record as “Not Active”. Still for that read-out and setting: as for `COc1cc2oc(-c3ccc(O)c(O)c3)cc(=O)c2c(O)c1[C@@H]1O[C@H](CO)[C@@H](O)[C@H](O)[C@H]1O`, the entry is “Not Active”.

Broadly, the IC50 is the concentration at which inhibition is half-maximal.
